Like-named read-outs stand apart in the source and are kept apart here. No end group written: not given here.
What was measured:
[1] = in vitro; format: cell-based, human; conditions: human, human red blood cells, pH 7, hemolytic assay, concentration at 50% hemolysis, 1 hour at 37° C.; read-out: LD50
[2] = system: yeast (Saccharomyces cerevisiae); assay: Antimicrobial assay I, yeast assay in RPMI 1640; format: cell-based; conditions: RPMI 1640 media
[3] = system: S. pneumoniae C719; assay: Antimicrobial assays II, NCCLS broth microdilution MIC; format: cell-based, Streptococcus pneumoniae; conditions: mean of three, in µg/mL
[4] = system: P. aeruginosa; format: cell-based, Pseudomonas aeruginosa; conditions: P. aeruginosa H744; MIC of nalidixic acid with peptide at ¼ MIC
How it was run: (§1)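 Efflux-mutant strains were tested with two-fold serial dilutions of chloramphenicol or nalidixic acid, alone and with peptide held at ¼ of its own MIC.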

[5] = system: P. aeruginosa H774; format: cell-based, Pseudomonas aeruginosa; conditions: P. aeruginosa H744; nalidixic acid + peptide at ¼ MIC; 0.5 or less = synergy
How it was run: as §1

[6] = system: P. aeruginosa H374; format: cell-based, Pseudomonas aeruginosa; conditions: for MIC Cm-comb.: MIC of chloramphenicol with peptide at ¼ MIC; for MIC Nal-comb.: MIC of nalidixic acid with peptide at ¼ MIC; for FIC Index: 0.5 or less = synergy
How it was run: as §1

[7] = system: S. aureus (MRSA); format: cell-based, Staphylococcus aureus; conditions: mean of three; 16 to 20 hours at 35° C.
[8] = system: S. pyogenes ATCC19615; assay: Antimicrobial assays II, NCCLS broth microdilution MIC; format: cell-based, Streptococcus pyogenes; conditions: mean of three, in µg/mL
[9] = system: S. epidermidis C621; format: cell-based, Staphylococcus epidermidis; conditions: mean of three; 16 to 20 hours at 35° C.
[10] = system: P. acne ATCC 6919; assay: Antimicrobial assays II, NCCLS broth microdilution MIC; format: cell-based, Propionibacterium acnes; conditions: mean of three, in µg/mL
[11] = system: Pseudomonas aeruginosa ATCC 9027; assay: Antimicrobial assay I, MIC by OD measurement; format: cell-based; conditions: 37° C. for 24 hours, absorbance 620 nm
[12] = system: Staphylococcus aureus ATCC 6538; assay: Antimicrobial assay I, MIC by OD measurement; format: cell-based; conditions: 37° C. for 24 hours, absorbance 620 nm
[13] = system: S. pneumoniae C718; assay: Antimicrobial assays II, NCCLS broth microdilution MIC; format: cell-based, Streptococcus pneumoniae; conditions: mean of three
[14] = system: PC3; assay: Anti-cancer assay, MTT, LD50; format: cell-based; conditions: 24 hours with peptide, prostate adenocarcinoma
Description: (§2) Numbers are LD50 values (μg/mL).

[15] = system: HeLaS3; assay: Anti-cancer assay, MTT, LD50; format: cell-based; conditions: 24 hours with peptide, cervical carcinoma
Description: as §2

[16] = system: SW480; assay: Anti-cancer assay, MTT, LD50; format: cell-based; conditions: SW480 colon adenocarcinoma line, 24 hours with peptide
Description: as §2

[17] = system: BMKC; assay: Anti-cancer assay, MTT, LD50; format: cell-based; conditions: BMKC cloned melanoma line, 24 hours with peptide
Description: as §2

[18] = system: MCF7; assay: Anti-cancer assay, MTT, LD50; format: cell-based; conditions: MCF7 breast adenocarcinoma line, MTT, 24 hours with peptide
Description: as §2

[19] = system: H1299; assay: Anti-cancer assay, MTT, LD50; format: cell-based; conditions: 24 hours with peptide, lung large cell carcinoma
Description: as §2

[20] = in vitro; conditions: human, WI38 normal lung fibroblast cells, LD50 WI38, WI38 normal lung fibroblast line, MTT, 24 hours with peptide
[21] = system: S. pyogenes M76; assay: Antimicrobial assays II, NCCLS broth microdilution MIC; format: cell-based, Streptococcus pyogenes; conditions: mean of three; 16 to 20 hours at 35° C.
[22] = system: WI38; conditions: MTT, 24 hours with peptide; normal fibroblast line
[23] = chloramphenicol + peptide at ¼ MIC
[24] = nalidixic acid + peptide at ¼ MIC, FIC=0.25+MIC comb/MIC alone

Row | Substance | HC50 at 1 h [1] [µg/mL] | yeast (MIC or MFC) [2] | S. pneumoniae MIC [3] | MIC Nal-comb. [4] [µg/mL] | FIC Index [5] | MIC Cm-comb. [6] [µg/mL] | MIC Nal-comb. [6] [µg/mL] | FIC Index [6, 23] | FIC Index [6, 24] | S. aureus (MRSA) MIC [7] [µg/mL] | S. pyogenes MIC [8] | S. epidermidis C621 MIC [9] [µg/mL] | P. acne MIC [10] | paerug9027 (MIC) [11] [µg/mL] | staph6538 (MIC) [12] [µg/mL] | S. pneumoniae MIC [13] [µg/mL] | PC3 LD50 [14] [µg/mL] | HeLaS3 LD50 [15] [µg/mL] | LD50 SW480 [16] [µg/mL] | LD50 BMKC [17] [µg/mL] | other results
1 | FALAKLAKKAKAKLKKALKAL-NH2 [P26] | 90 | > (> indicates greater than 200 μg/mL) | 16 | 624 | 1.25 | 8 | 2500 | 0.75 | 0.75 | 32 | 4 | 4 | 4 | 15 | 10 | > 128 | 125 | 150 | 8 | 94 | LD50 MCF7 [18]: 74 µg/mL; H1299 LD50 [19]: 84 µg/mL; CC50 at 24 h [20]: 96 µg/mL; S. pyogenes M76 MIC [21]: 4 µg/mL; WI38 LD50 [22]: 96 µg/mL
2 | FALALKALKKLAKKLKKLAKKAL-NH2 [P25] | 16 | 25 µg/mL | 8 | 156 | 0.5 | 4 | 2500 | 0.5 | 0.75 | 16 | 8 | 4 | 2 | 5 | 10 | 64 | 12 | 20 | 12 | 36 | LD50 MCF7 [18]: 10 µg/mL; H1299 LD50 [19]: 37 µg/mL; CC50 at 24 h [20]: 24 µg/mL; S. pyogenes M76 MIC [21]: 8 µg/mL; WI38 LD50 [22]: 24 µg/mL
3 | FAKLLAKLAKKLL-NH2 [P43] | 20 | 25 µg/mL | 4 | 624 | 1.25 | 16 | 5000 | 1.25 | 1.25 | 4 | 2 | 2 | 2 | 100 | 5 | 8 | 12 | 15 | 9 | 7 | LD50 MCF7 [18]: 9 µg/mL; H1299 LD50 [19]: 6 µg/mL; CC50 at 24 h [20]: 5 µg/mL; S. pyogenes M76 MIC [21]: 2 µg/mL; WI38 LD50 [22]: 5 µg/mL
4 | FAKLLAKLAKKVL-NH2 [P124] | 55 | 100 µg/mL | 64 | 624 | 1.25 | 16 | 2500 | 1.25 | 0.75 | 8 | 16 | 4 | 8 | 100 | 5 | > 128 | 10 | 14 | 9 | 10 | LD50 MCF7 [18]: 18 µg/mL; H1299 LD50 [19]: 30 µg/mL; CC50 at 24 h [20]: 21 µg/mL; S. pyogenes M76 MIC [21]: 16 µg/mL; WI38 LD50 [22]: 21 µg/mL
5 | FAKLLAKALKKFAL-NH2 [P119, FAKLLAKALKKFAL-NH2] | 400 | 50 µg/mL | 32 | 624 | 1.25 | 16 | 2500 | 1.25 | 0.75 | 8 | 8 | 4 | 8 | 25 | 50 | 128 | 140 | 30 | 46 | 36 | LD50 MCF7 [18]: 54 µg/mL; H1299 LD50 [19]: 33 µg/mL; CC50 at 24 h [20]: 45 µg/mL; S. pyogenes M76 MIC [21]: 8 µg/mL; WI38 LD50 [22]: 45 µg/mL

Source: US20050209157A1, “Short bioactive peptides and methods for their use” (priority 2001, published 2005)
